One assay deals with monkey VERO cells. As to the kind of experiment: VERO cell cytotoxicity assay (luminescent ATP cell viability, 72 hour exposure). The format is cell-based. The note with it: Primates.
Assay [1] relates to M. tuberculosis (H37Rv strain). As to the kind of experiment: Microplate Alamar Blue Assay (MABA) susceptibility assay in BACTEC 12B medium. To be noted: Mycobacterium tuberculosis. It counts as cell-based. A general note: The colour change of resazurin is a common sign of viable cells or microbes.
[2] abbreviates: Vero, summary of Table 1, read-out: EC50 value (v. Monkey VERO Cells).
[3] abbreviates: VERO cells, 72 hour exposure, ATP luminescence, read-out: EC50 VERO cells.
[4] abbreviates: H37Rv strain, MABA, 90% reduction in fluorescence relative to controls, read-out: IC90 M. tuberculosis (H37Rv strain).
[5] abbreviates: Table 1, H37Rv strain, read-out: IC90 value (v. M. tuberculosis).

In brackets after ≈: the same amount, converted by molar mass. Where two headings read alike, the source gives them in different places.

`CC(C)(C)c1cc(N)c(SCCNC(=N)N)c(NC(=O)c2cc(OCCNC(=N)N)cc(C(=O)Nc3cc(C(C)(C)C)cc(N)c3SCCNC(=N)N)c2)c1` [Compound 1]: the EC50 with monkey VERO cells (setting [2]) and in the assay with monkey VERO cells (setting [3]) was above 300 µg/mL each time. The IC90 in assay [1] (setting [4]) was 2.2 µg/mL (≈ 2.77 µM); in assay [1] (setting [5]), below 5 µg/mL.

For `CC(C)(C)c1cc(N)c(SCCNC(=N)N)c(NC(=O)c2cc(C(=O)Nc3cc(C(C)(C)C)cc(N)c3SCCNC(=N)N)c(OCCNC(=N)N)cc2OCCNC(=N)N)c1` [Compound 2], the EC50 in the assay on monkey VERO cells (setting [2]) and in the assay on monkey VERO cells (setting [3]) was above 300 µg/mL each time. For the same compound, the IC90 in assay [1] (setting [4]) was 4.5 µg/mL (≈ 5.03 µM); in assay [1] (setting [5]) it was below 5 µg/mL.

For the compound `N=C(N)NCCCCC(=O)Nc1cccc(NC(=O)c2cc(C(=O)Nc3cccc(NC(=O)CCCCNC(=N)N)c3SCCN)ncn2)c1SCCN` [Compound 3], the EC50 with monkey VERO cells (setting [2]) and with monkey VERO cells (setting [3]) was above 100 µg/mL throughout. In addition, the IC90 in assay [1] (setting [4]) was 3.6 µg/mL (≈ 4.61 µM); in assay [1] (setting [5]), below 5 µg/mL.

Turning to `CC(C)(C)c1cc(NC(=O)CCCCNC(=N)N)c(SCCN)c(NC(=O)Nc2cc(C(C)(C)C)cc(NC(=O)CCCCNC(=N)N)c2SCCN)c1` [Compound 4], the EC50 in the assay with monkey VERO cells (setting [2]) and in the assay with monkey VERO cells (setting [3]) was above 300 µg/mL throughout. For the same compound, the results for the IC90 in assay [1] (setting [4]) and in assay [1] (setting [5]) were 18.4 µg/mL (≈ 23.4 µM) and below 20 µg/mL, respectively.

As usually defined, the EC50 is the concentration at which the effect is half-maximal. A word on the IC90: it is the point of the concentration-response curve where the effect stands at 90%.

Values taken from patent US20130137706A1, “Antimicrobial Molecules For Treating Multi-Drug Resistant and Extensively Drug Resistant Strains Of Mycobacterium” (POLYMEDIX, INC., priority 2008, published 2013).
